Results reported in the supplement of paper PMC10307832.

Columns and labels:
Assay in all cases: relative viability (nuclei count vs DMSO), 5 days (fraction); higher = more cells survive
AZD5582 + Linsitinib = compound: C[C@@H](C(=O)N[C@@H](C1CCCCC1)C(=O)N2CCC[C@H]2C(=O)N[C@@H]3[C@@H](CC4=CC=CC=C34)OCC#CC#CCO[C@@H]5CC6=CC=CC=C6[C@@H]5NC(=O)[C@@H]7CCCN7C(=O)[C@H](C8CCCCC8)NC(=O)[C@H](C)NC)NC [AZD5582] + C[C@]1(O)C[C@@H](c2nc(-c3ccc4ccc(-c5ccccc5)nc4c3)c3c(N)nccn32)C1 [Linsitinib] (partner 1 µM)
Method in brief: (§1)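 Relative viability divides the nuclei count in treated wells by that in vehicle wells. Lung cancer cell lines were seeded in 1536-well plates, dosed by pin tool the next day, and fixed and stained after 5 days in one step with final 0.05% Triton X-100, 1% formaldehyde and 1 ug/ml Hoechst. Dosing was a single drug or a fixed anchor-drug dose plus five library-drug doses (not always all listed) in √10 steps, and values are medians of duplicate plates imaged at 4×.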

[1] = compound: Cn1nnc2c(C(N)=O)ncn2c1=O [Temozolomide] + C[C@@H](Oc1cc(-c2cnn(C3CCNCC3)c2)cnc1N)c1c(Cl)ccc(F)c1Cl [Crizotinib] (partner 1 µM)
Method in brief: as §1

Temozolomide + Olaparib = compound: Cn1nnc2c(C(N)=O)ncn2c1=O [Temozolomide] + O=C(c1cc(Cc2n[nH]c(=O)c3ccccc23)ccc1F)N1CCN(C(=O)C2CC2)CC1 [Olaparib] (partner 8 µM)
Method in brief: as §1

[2] = compound: Cn1nnc2c(C(N)=O)ncn2c1=O [Temozolomide] + Nc1nc2[nH]cc(CCc3ccc(C(=O)N[C@@H](CCC(=O)O)C(=O)O)cc3)c2c(=O)[nH]1 [Pemetrexed] (partner 0.2 µM)
Method in brief: as §1

Calu-6 was tested, and the relative viability (AZD5582 + Linsitinib; first compound 0.001581 µM) was 0.811, the relative viability (AZD5582 + Linsitinib; first compound 0.01581 µM) was 0.985 and the relative viability (AZD5582 + Linsitinib; first compound 0.05 µM) was 0.768. For the same cell line, the relative viability ([1]; first compound 0.2 µM) was 0.997, the relative viability ([1]; first compound 0.6325 µM) was 0.83 and the relative viability ([1]; first compound 2 µM) was 0.904. It also gave a relative viability ([1]; first compound 6.325 µM) of 0.817, a relative viability ([1]; first compound 20 µM) of 0.767 and a relative viability (Temozolomide + Olaparib; first compound 0.2 µM) of 0.787. It also gave a relative viability (Temozolomide + Olaparib; first compound 0.6325 µM) of 0.603, a relative viability (Temozolomide + Olaparib; first compound 2 µM) of 0.6 and a relative viability (Temozolomide + Olaparib; first compound 6.325 µM) of 0.484. For the same cell line, the relative viability (Temozolomide + Olaparib; first compound 20 µM) was 0.259.

Work on NCI-H522 yielded a relative viability ([2]; first compound 0.2 µM) of 0.765, a relative viability ([2]; first compound 0.6325 µM) of 0.972 and a relative viability ([2]; first compound 2 µM) of 1.27. The relative viability ([2]; first compound 6.325 µM) was 0.984, the relative viability ([2]; first compound 20 µM) was 0.804 and the relative viability (Temozolomide + Olaparib; first compound 0.2 µM) was 0.64. It also gave a relative viability (Temozolomide + Olaparib; first compound 0.6325 µM) of 0.543, a relative viability (Temozolomide + Olaparib; first compound 2 µM) of 0.762 and a relative viability (Temozolomide + Olaparib; first compound 6.325 µM) of 0.574. The relative viability (Temozolomide + Olaparib; first compound 20 µM) was 0.469.

NCI-H1563 showed a relative viability (AZD5582 + Linsitinib; first compound 0.001581 µM) of 1.23, a relative viability (AZD5582 + Linsitinib; first compound 0.005 µM) of 1.18 and a relative viability (AZD5582 + Linsitinib; first compound 0.01581 µM) of 1.24. It also gave a relative viability (AZD5582 + Linsitinib; first compound 0.05 µM) of 1.15, a relative viability ([1]; first compound 0.2 µM) of 0.911 and a relative viability ([1]; first compound 0.6325 µM) of 0.853. For the same cell line, the relative viability ([1]; first compound 2 µM) was 0.965, the relative viability ([1]; first compound 6.325 µM) was 0.847 and the relative viability ([1]; first compound 20 µM) was 0.729. For the same cell line, the relative viability ([2]; first compound 0.2 µM) was 0.71, the relative viability ([2]; first compound 0.6325 µM) was 0.798 and the relative viability ([2]; first compound 2 µM) was 0.744. For the same cell line, the relative viability ([2]; first compound 6.325 µM) was 0.739 and the relative viability ([2]; first compound 20 µM) was 0.747.

In the case of IA-LM, the relative viability (AZD5582 + Linsitinib; first compound 0.001581 µM) was 0.5, the relative viability (AZD5582 + Linsitinib; first compound 0.005 µM) was 0.479 and the relative viability (AZD5582 + Linsitinib; first compound 0.01581 µM) was 0.64. For the same cell line, the relative viability (AZD5582 + Linsitinib; first compound 0.05 µM) was 0.599, the relative viability ([1]; first compound 0.2 µM) was 1.27 and the relative viability ([1]; first compound 0.6325 µM) was 0.719. It also gave a relative viability ([1]; first compound 2 µM) of 1.09, a relative viability ([1]; first compound 6.325 µM) of 0.706 and a relative viability ([1]; first compound 20 µM) of 0.962. It also gave a relative viability (Temozolomide + Olaparib; first compound 0.2 µM) of 0.908, a relative viability (Temozolomide + Olaparib; first compound 0.6325 µM) of 0.744 and a relative viability (Temozolomide + Olaparib; first compound 2 µM) of 0.86. It also gave a relative viability (Temozolomide + Olaparib; first compound 6.325 µM) of 0.759 and a relative viability (Temozolomide + Olaparib; first compound 20 µM) of 0.694.

Cell Line NCI-H2342 has a relative viability ([2]; first compound 0.2 µM) of 0.653, a relative viability ([2]; first compound 0.6325 µM) of 0.86 and a relative viability ([2]; first compound 2 µM) of 0.914. The relative viability ([2]; first compound 6.325 µM) was 0.708, the relative viability ([2]; first compound 20 µM) was 0.769 and the relative viability (Temozolomide + Olaparib; first compound 0.2 µM) was 0.344. For the same cell line, the relative viability (Temozolomide + Olaparib; first compound 0.6325 µM) was 0.411, the relative viability (Temozolomide + Olaparib; first compound 2 µM) was 0.454 and the relative viability (Temozolomide + Olaparib; first compound 6.325 µM) was 0.386. For the same cell line, the relative viability (Temozolomide + Olaparib; first compound 20 µM) was 0.36.

With NCI-H1793 the relative viability (AZD5582 + Linsitinib; first compound 0.001581 µM) was 0.816, the relative viability (AZD5582 + Linsitinib; first compound 0.005 µM) was 1.01 and the relative viability (AZD5582 + Linsitinib; first compound 0.01581 µM) was 0.752. It also gave a relative viability (AZD5582 + Linsitinib; first compound 0.05 µM) of 1.11, a relative viability ([2]; first compound 0.6325 µM) of 1.19 and a relative viability ([2]; first compound 2 µM) of 1.03. The relative viability ([2]; first compound 6.325 µM) was 0.718, the relative viability ([2]; first compound 20 µM) was 0.792 and the relative viability (Temozolomide + Olaparib; first compound 0.6325 µM) was 0.943. It also gave a relative viability (Temozolomide + Olaparib; first compound 2 µM) of 1.07, a relative viability (Temozolomide + Olaparib; first compound 6.325 µM) of 0.685 and a relative viability (Temozolomide + Olaparib; first compound 20 µM) of 0.506.
